Data as given in patent US20220218738A1, “POTASSIUM-BINDING AGENTS FOR USE IN HEMODIALYSIS PATIENTS” (AstraZeneca AB, priority 2019, published 2022).

Test system: hyperkalemia in patients on hemodialysis
Test: Phase 3b randomized, double-blind, placebo-controlled study to reduce incidence of pre-dialysis hyperkalemia with SZC
Parameters: species or system human
Details: in vivo
Procedure: A Phase 3b, Multicenter, Prospective, Randomized, Double Blind, Placebocontrolled Study to Reduce Incidence of Pre-Dialysis Hyperkalemia with Sodium Zirconium Cyclosilicate (SZC) The study was carried out to evaluate the efficacy of Sodium Zirconium Cyclosilicate in the treatment of hyperkalemia in patients on hemodialysis. The study was designed to include approximately 180 patients with ESRD receiving maintenance hemodialysis treatments three times per week with an indication for treatment of hyperkalemia (FIG. 1). The study is a randomized, double-blind study with two treatment groups, SZC or placebo, and includes hemodialysis patients that have been on dialysis for a minimum of three months and receive treatment three times a week. Patients must have hemodialysis access consisting of an arteriovenous fistula, AV graft, or tunneled (permanent) catheter which is expected to remain in place for the entire duration of the study (FIG. 2).
The starting dose of SZC will be 5 g once daily on non-dialysis day and may be adjusted to a maximum of 15 g per non-dialysis day to maintain a pre-dialysis S-K between 4-5 mmol/L. SZC or placebo will be administered orally on non-dialysis days for a treatment period of eight weeks. Patients will be randomized (1:1) to double-blind treatment with either SZC or placebo, started at 5 g once daily on non-dialysis days, and titrated during a period of four weeks to achieve and maintain a pre-dialysis serum potassium between 4 and 5 mmol/L after the Long Inter-Dialytic Interval (LIDI). Maximum SZC dose is 15 g once daily on non-dialysis days. Treatment will be continued unchanged for an additional four week evaluation period to complete a total of 8 weeks. The primary benefit for patients randomized to SZC is expected to be the maintenance of normokalemia during the long interdialytic interval, potentially including the relief of associated signs and symptoms and an improved quality of life.
For inclusion in the study patients should fulfil the following criteria: 1. Provision of informed consent prior to any study specific procedures. 2. Female or male aged >18 years at screening Visit 1. For patients aged <20 years and enrolled in Japan, a written informed consent should be obtained from the patient and his or her legally acceptable representative. 3. Receiving hemodialysis (or hemodiafiltration) three times a week for treatment of endstage renal disease (ESRD) for at least three months before randomization. 4. […]
Patients should not enter the study if any of the following exclusion criteria are fulfilled: 1. […] Hemoglobin <9 g/dL on screening (as assessed on Visit 1). […]

Sodium Zirconium Cyclosilicate [SZC]
number of patients with adverse events: 40
number of patients with serious adverse event: 7
overall safety: no safety concerns
patients with pre-dialysis hypokalemia (serum K<3.5 mmol/L): five
